Experimental data published in article PMC5700161, “Structure of human immunoproteasome with a reversible and noncompetitive inhibitor that selectively inhibits activated lymphocytes” (Nature Communications, 2017).

Legend:
[1] = molecular target: T1, β5i in Karpas 1106P cells (Homo sapiens, UniProt P20618+P28062); assay: Intracellular β5i activity in Karpas 1106P cells, (Ac-ANW)2-R110; format: cell-based
T1 construct: host or cells: Karpas 1106P
Method: To determine if this class of inhibitors is cell penetrable, we treated the B-cell lymphoma line Karpas 1106P[28] (expressing a high proportion of i-20S over c-20S) with PKS21221 before incubation with either (Ac-ANW)2-R110 (a specific substrate of β5i) or suc-LLVY-luciferin (a substrate of β5) (Fig. 4a). […] No β5i activity was detected in HepG2 cells using (Ac-ANW)2-R110 as a substrate.
Cell viability was determined by CellTiter-glo.
Intracellular proteasomal activity and inhibition assay were performed as reported. Karpas 1106P (80,000 cells per well) were plated and incubated with compound at indicated concentrations for 1 h at 37 °C. The activity of the overall β5 activity including β5i and β5c in each was measured in situ after compound removal with Proteasome-Glo assay kit according to manufacturer’s instructions. Luminescence was recorded on a SpectraMax M5 plate reader. Relative percentage of RLU was used to calculate the IC50s.

Karpas 1106P cells = assay: Cytotoxicity, CellTiter-glo, Karpas 1106P; conditions: read-out: EC50 Karpas, 72 h
Method: (§1) Fig. 4 Intracellular proteasome inhibition by PKS21221 and its cytotoxicity against transformed cell lines. a Karpas 1106P lymphoma cells (white and black symbols) or HepG2 cells (blue symbols) were treated with PKS21221 for 2 h at the concentrations indicated prior to incubation with substrate (Ac-ANW)2R110 for β5i (Karpas cells) or suc-LLVY-luciferin for β5 (Karpas cells and HepG2 cells). […] Cell viability was determined by CellTiter-glo. Data are means ± SEM of three to four independent experiments
(§2) We incubated MM.1S, RPMI 8226, Karpas and HepG2 cells with PKS21221 at different concentrations, and determined cell viability after 72 h (Fig. 4b).
(§3) We used Karpas 1106P B lymphoma cell line (Cat. No. 06072607, Aldrich)[15],[16],[52], HepG2 (HB-8065, ATCC), MM.1S (Cat. No. CRL-2974, ATCC). Cells were cultured at 37 °C in a humidified air/5% CO2 atmosphere in medium supplemented with 10% fetal bovine serum, except for the medium for Karpas 1106P cells which contained 20% fetal bovine serum, and 100 units per ml penicillin, 100 μg per ml streptomycin in RPMI 1640 medium. Karpas 1106P was used at 80,000 cells per well, MM.1S at 100,000 cells per well, and HepG2 at 12,000 cells per well. […] Viable cells were counted using Cell-titer Glo assay kit. EC50s were calculated using PRISM (Graphpad).

CD19+CD38+CD27+ ASCs = assay: Survival and apoptosis of differentiated antibody-secreting cells (ASCs) from PBMC, Annexin V/7-AAD; format: cell-based, human
Method: (§4) The immunoproteasome plays important roles in T cell differentiation and proliferation and dendritic cell activation and maturation[14],[20],[24]. However, its role in B cell differentiation is not well understood. […] Differentiated ASCs were then exposed to PKS21221 at indicated concentrations and cell survival was determined with Annexin V and 7-aminoactinomycin D (7-AAD) at three-time points (12-h, 24-h, and 48-h after treatment). […] In addition, the cytotoxicity of PKS21221 to different cell populations in PBMC was examined and compared to the cytotoxicity of bortezomib. PBMCs were incubated with PKS21221 or bortezomib, and the viability was assessed in T cells (CD3^+), B cells (CD19^+), monocytes (CD14^+) and dendritic cells (CD3^−CD19^−CD14^−CD16^−CD11c^+HLA-DR^+), respectively (Supplementary Fig. 13b–e).
PBMCs were cultured with or without IL-2/R848 for 5 days, followed by 12-h incubation with PKS21221 at different concentrations. a Representative flow cytometry plots of cells treated with IL-2 and R848 in the presence and absence of PKS21221. […] Annexin V^+7-AAD^− cells were referred as “Early apoptosis” population, and Annexin V^+7-AAD^+ cells were referred as “Dead” population. d Percentage of early apoptotic ASCs (left) and dead ASCs (right), after 12-h incubation with PKS21221.
Human peripheral blood samples were obtained from five different healthy volunteers (BWH Specimen Bank). Peripheral blood mononuclear cells (PBMCs) were isolated by density gradient centrifugation using Lymphoprep (StemCell Technologies). PBMCs were cultured at 1.5 × 10^6 cells per mL in RPMI 1640 media (Lonza), supplemented with 10% human serum (GemCell) (10% HS-RPMI), recombinant human IL-2 10 ng per mL (or 100 U per ml, BioLegend) and R848 1 µg per mL (Cayman Chemicals) for 5 days, at 37 °C, 5% CO2. PKS21221 in DMSO, or DMSO only for control, was added to the culture media on day 5, and cells were incubated for additional 12, 24, and 48 h.

β1c = β1c (Homo sapiens, UniProt P28072); assay: IC50 against β1c of human constitutive proteasome (Z-LLE-AMC); conditions: read-out: IC50 1c - LLE (β1c); substrate Z-LLE-AMC
Method: IC50s of all compounds against β5i and β5c (Table 2) and against β1i, β2i, β1c, and β2c (Supplementary Table 1) were determined following reported methods[8].

CD19+ non-ASCs = assay: Apoptosis and viability of CD19+ non-ASCs in ASC differentiation culture; format: cell-based
Method: as §4
PBMCs were cultured with or without IL-2/R848 for 5 days, followed by 12-h incubation with PKS21221 at different concentrations. a Representative flow cytometry plots of cells treated with IL-2 and R848 in the presence and absence of PKS21221. […] Annexin V^+7-AAD^− cells were referred as “Early apoptosis” population, and Annexin V^+7-AAD^+ cells were referred as “Dead” population. d Percentage of early apoptotic ASCs (left) and dead ASCs (right), after 12-h incubation with PKS21221. […]

β5i (i-20S) = molecular target: T2, β5i (i-20S) (Homo sapiens, UniProt P20618+P28062); assay: Kinetics studies of modality of inhibition against β5i; format: biochemical
T2 construct: purchased Boston Biochem
Method: Data as in d are shown in double reciprocal plots in e, and data from f in g. […] Data are means ± SEM of three independent experiments […]
With increasing concentrations of PKS21004, both V max and K M decreased (Fig. 1d–g and Supplementary Fig. 1). […] This class thus joins a growing list of noncompetitive proteasome inhibitors[5],[30].
Supplementary Figure 11. Inhibition kinetics of PKS21221 against i-20S β5i. (A) Steady state velocities of the Ac-ANW-AMC hydrolysis at 10, 15, 25, 35 µM by i-20S β5i (0.4 nM) in the presence of PKS21221 at indicated concentrations were determined at 37 °C and plotted by RFU versus substrate concentration (A); values of KM, Ki and α were estimated by PRISM using equation V = (Vmax / (1 + I / (α*Ki))) * S / (KM * (1+ I / Ki) / (1 + I / (α*Ki)) + S); (B) Lineweaver-Burk plot of the data in (A). (C) Plot of KM versus concentrations of PKS21221 indicates a mixed type inhibition. (D) Plot of Vmax versus concentrations of PKS21221.
(1 picture or pasted object on this page, not shown here)

RPMI 8226 cells = assay: Cytotoxicity, CellTiter-glo, RPMI 8226; format: cell-based; conditions: 72 h
Method: as §1, §2, §3

## Cc1ccc(S(=O)(=O)N[C@@H](CC(=O)NC(C)(C)C)C(=O)NCCNC(=O)c2cc(-c3ccccc3F)ccc2F)cc1 [PKS21221]
[1]
  IC50: 172 ± 33 nM
Karpas 1106P cells
  EC50: 740 ± 145 nM
CD19+CD38+CD27+ ASCs; 12-h, 24-h, 48-h after treatment
  percentage of viable ASC: decreased with PKS21221 treatment in a dose- and time-dependent manner
CD19+CD38+CD27+ ASCs; added for 12 hours on Day 5
  ASC percentage in ASC differentiating culture: decreased the percentage of
β1c
  IC50: > 50000 nM
CD19+ non-ASCs
  apoptosis of CD19+ non-ASCs: slightly enhanced
  viability of CD19+ non-ASCs: did not affect viability
β5i (i-20S)
  α for β5i (αi-20S): 0.26
β5i (i-20S); versus substrate
  modality of inhibition of β5i: noncompetitive
RPMI 8226 cells
  EC50: 66 ± 6 nM
